Experiments:
[1] = tested on: Mouse lymphoma EL4 cells transfected with RORγt plasmid; experiment: Determination of the activation rate on mouse lymphoma EL4 (IL-17 generation); format: cell-based; details: compound at 2 μM, 24 hours, PMA/ionomycin stimulation 4 hours, flow cytometry, read-out: +act % (activation of IL-17 generated by EL4 cells)
Experimental: Determination of the Activation Rate on Mouse Lymphoma EL4
Mouse lymphoma EL4 cells transfected with RORγt plasmid were cultured at 37° C. under an atmosphere with 5% CO2, with a test compound added simultaneously. After 24 hours, the generation efficiency of IL-17A was analyzed. Before collection of cells, PMA at 50 ng/mL and ionomycin at 500 ng/mL were added for stimulation for 4 hours. The proportion of IL-17 was detected by intracellular staining and flow cytometry. […] The activation rate of IL-17 generated by EL4 cells for the compound was measured at a concentration of 2 μM.

[2] = tested on: Mouse spleen CD4+T cells differentiated into Th17 cells; experiment: Mouse Th17 cell differentiation, half-maximal effect concentration; format: cell-based; details: 96 hours, proportion of IL-17 by intracellular staining and flow cytometry
Experimental: Determination of the Half-Maximal Effect Concentration of Mouse Th17 Cell Differentiation
Experimental methods: Mouse spleen CD4^+T cells were separated and differentiated into Th17 cells. CD4^+T cells were cultured in the environment containing anti-CD3 (0.25 μg/mL), anti-CD28 (1 μg/mL), anti-IL4 (2 μg/mL), anti-IFN-γ (2 μg/mL), TGF-β (5 ng/mL), and IL6 (20 ng/mL), with a test compound added at the same time. After 96 hours, the differentiation efficiency of Th17 was analyzed. Before collection of cells, PMA at 50 ng/mL and ionomycin at 500 ng/mL were added for stimulation for 4 hours, and the proportion of IL-17 was detected by intracellular staining and flow cytometry. Meanwhile, we used Live/Dead Cell Dye (Invitrogen) staining method to analyze the cell survival rate and to judge whether the drug had toxicity to cells, and determined the half-maximal effect concentration EC50 of the compounds.

[3] = molecular target: T1, RORγ receptor (B-RORγ LBD / Bioin-SRC1) (Homo sapiens, UniProt P51449); experiment: Determination of agonistic activities on RORγ receptors in vitro (dual FRET); format: biochemical; details: average of at least two independent experiments
T1 construct: 40 nM B-RORγ LBD solution
T1 sequence (P51449 269-508 limits assumed): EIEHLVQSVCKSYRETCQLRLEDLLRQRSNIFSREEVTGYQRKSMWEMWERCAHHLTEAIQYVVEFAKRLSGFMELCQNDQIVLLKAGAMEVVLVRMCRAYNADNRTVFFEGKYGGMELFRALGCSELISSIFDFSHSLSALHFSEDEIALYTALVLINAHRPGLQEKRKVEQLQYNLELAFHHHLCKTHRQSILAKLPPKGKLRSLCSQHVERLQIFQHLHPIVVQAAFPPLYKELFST
T1 sequence (Q15788 676-700 partner limits assumed): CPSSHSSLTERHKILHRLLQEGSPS
Experimental: Determination of Agonistic Activities of Compounds on RORγ Receptors In Vitro The agonistic activities of compounds described herein on RORγ receptor were determined by dual fluorescence resonance energy transfer (dual FRET) experiments. The agonistic activity was expressed by half maximum effect concentration (EC50).
1) Preparation of RORγ Assay Buffer
100 mL of buffer solution was well mixed with […] DTT for use.
2) Preparation of Solutions of Compounds
3) Preparation of protein mixtures a) 40 nM B-RORγ LBD solution was mixed well with 20 nM SA-APC solution and incubated for 15 minutes at room temperature. Then the resulting mixture was further mixed well with 400 nM Biotin and incubated for another 10 minutes at room temperature. […]
b) 40 nM Bioin-SRC1 solution was mixed well with 10 nM SA-eu solution and was incubated for 15 minutes at room temperature. Then the resulting mixture was further mixed well with 200 nM Biotin and was incubated for another 10 minutes at room temperature. […]
d) A mixture (25 μL) of B-RORγ LBD/SA-APC and Bioin-SRC1/SA-eu together with a test compound was added to one of the wells of a 384-well plate, and then the plate was centrifuged for one minute at 1000 rpm, and incubated at room temperature for one hour. The data were read on an Envision microplate detector and EC50 values were calculated.

EC50 [3]	SMILES	activation at 2 µM [1]	EC50 [2]
	CCS(=O)(=O)c1ccc(CC(=O)Nc2cc(Cl)c(-c3ccc(CC(C)C)c(C#N)c3)c(Cl)c2)nc1 [Example 19, N-(2,6-Dichloro-3′-cyano-4′-isobutyl-[1,1′-biphenyl]-4-yl)-2-(5-(ethylsulfonyl)pyridin-2-yl)acetamide]	20 to 50%	50 to 150 nM
	CCS(=O)(=O)c1ccc(CC(=O)Nc2cc(Cl)c(-c3ccc(OC(C)C)c(C#N)c3)c(Cl)c2)cc1 [Example 32, N-(2,6-Dichloro-3′-cyano-4′-isopropoxy-[1,1′-biphenyl]-4-yl)-2-(4-(ethylsulfonyl)phenyl)acetamide]		< 50 nM
10 to 50 nM	CC(C)Cc1ccc(-c2c(Cl)cc(NC(=O)C3CCCCC3)cc2Cl)cc1C#N [Example 2, N-(2,6-Dichloro-3′-cyano-4′-isobutyl-[1,1′-biphenyl]-4-yl)cyclohexanecarboxamide]	20 to 50%	
< 10 nM	CC(C)Cc1ccc(-c2c(Cl)cc(NC(=O)Cc3ccc(C(=O)O)cc3)cc2Cl)cc1C#N [Example 24, 4-(2-((2,6-Dichloro-3′-cyano-4′-isobutyl-[1,1′-biphenyl]-4-yl)amino)-2-oxoethyl)benzoic acid]	< 20%	
10 to 50 nM	CC(C)Cc1ccc(-c2c(Cl)cc(NC(=O)Cc3ccn(C)n3)cc2Cl)cc1C#N [Example 9A, N-(2,6-Dichloro-3′-cyano-4′-isobutyl-[1,1′-biphenyl]-4-yl)-2-(1-methyl-1H-pyrazol-3-yl)acetamide]	< 20%	
10 to 50 nM	CC(C)Cc1ccc(-c2c(Cl)cc(NC(=O)CC3CCOCC3)cc2Cl)cc1C#N [Example 6, N-(2,6-Dichloro-3′-cyano-4′-isobutyl-[1,1′-biphenyl]-4-yl)-2-(tetrahydro-2H-pyran-4-yl) acetamide]	20 to 50%	
10 to 50 nM	CCS(=O)(=O)c1ccc(CNC(=O)Nc2cc(Cl)c(-c3ccc(CC(C)C)c(C#N)c3)c(Cl)c2)nc1 [Example 55, 1-(2,6-Dichloro-3′-cyano-4′-isobutyl-[1,1′-biphenyl]-4-yl)-3-((5-(ethylsulfonyl)pyridin-2-yl)methyl)urea]	20 to 50%	
10 to 50 nM	CC(C)Cc1ccc(-c2c(Cl)cc(NC(=O)CC3CCCCC3)cc2Cl)cc1C#N [Example 5, (2-Cyclohexyl-N-(2,6-dichloro-3′-cyano-4′-isobutyl-[1,1′-biphenyl]-4-yl)acetamide)]	< 20%	
	CCC(C)Cc1ccc(-c2c(Cl)cc(NC(=O)Cc3ccc(S(=O)(=O)CC)cc3)cc2Cl)cc1C#N (centres unmarked) [Example 41, N-(2,6-Dichloro-3′-cyano-4′-(2-methylbutyl)-[1,1′-biphenyl]-4-yl)-2-(4-(ethylsulfonyl)phenyl)acetamide]		> 150 nM
10 to 50 nM	CN(C)Cc1ccc(-c2c(Cl)cc(NC(=O)Cc3ccc(S(C)(=O)=O)cc3)cc2Cl)cc1C#N [Example 34, N-(2,6-Dichloro-3′-cyano-4′-((dimethylamino)methyl)-[1,1′-biphenyl]-4-yl)-2-(4-(methylsulfonyl)phenyl)acetamide]	> 50%	
10 to 50 nM	CC(C)Cc1ccc(-c2c(Cl)cc(NC(=O)Cc3ccccc3C#N)cc2Cl)cc1C#N [Example 11, 2-(2-Cyanophenyl)-N-(2,6-dichloro-3′-cyano-4′-isobutyl-[1,1′-biphenyl]-4-yl)acetamide]	< 20%	
	CCS(=O)(=O)c1ccc(CC(=O)Nc2cc(Cl)c(-c3ccc(CC4CCC4)c(C#N)c3)c(Cl)c2)cc1 [Example 43, (N-(2,6-Dichloro-3′-cyano-4′-(cyclobutylmethyl)-[1,1′-biphenyl]-4-yl)-2-(4-(ethylsulfonyl)phenyl)acetamide)]		50 to 150 nM
< 10 nM	CCS(=O)(=O)c1ccc(CCNc2cc(Cl)c(-c3ccc(CN(C)C)c(C#N)c3)c(Cl)c2)cc1 [Example 62, 2′,6′-Dichloro-4-((dimethylamino)methyl)-4′((4-(ethylsulfonyl)phenethyl)amino)-[1,1′-biphenyl]-3-carbonitrile]	20 to 50%	

— US10844017B2, “Biaryl compound, preparation method and use thereof” (FUDAN UNIVERSITY, priority 2017, dated 2020)
